Data from paper PMC8916034, “Abubidentin A, New Oleanane-type Triterpene Ester from Abutilon bidentatum and its antioxidant, cholinesterase and antimicrobial activities” (PeerJ, 2022).
Converted amounts (≈) assume the structure as drawn. “And” between values parts separate entries of the source, which are not always exact repeats. Identical values can stand only once. Like-named read-outs stand apart in the source and are kept apart here.

Assays:
[1] = DPPH radical scavenging activity; details: for AA (mg/gm) Avg (DPPH activity) / AA (mg/gm) (DPPH activity), single trial: Conc 20 µg/mL; for AA (mg/gm) Avg (DPPH activity): average of trials A-C; for AA (mg/gm) (DPPH activity), single trial: single trials A, B, C; for DPPH IC50: mean ± SD, triplicate, 30 min, 517 nm
Procedure: The ability of the samples to scavenge DPPH radical was determined by [Wang, Chen & Hou (2019)] method with slight modification ([Wang, Chen & Hou, 2019]). […] Samples were incubated at ambient temperature under dark conditions for 30 min and the absorbance wavelength was measured at 517 nm against a blank sample. DPPH^• solution and ascorbic acid were used as blank samples and positive control, respectively.
where Ab and As are the absorbance values of the blank and test samples, respectively.

[2] = ABTS radical cation decolorization assay; details: for AA (mg/gm) Avg (ABTS+ activity) / AA (mg/gm) (ABTS+ activity), single trial: Conc. 20 µg/mL; for AA (mg/gm) Avg (ABTS+ activity): average of trials A-C; for AA (mg/gm) (ABTS+ activity), single trial: single trials A, B, C; for ABTS^+ IC50: mean ± SD, triplicate, 30 min, 734 nm
Procedure: ABTS radical cation decolorization assay was performed to measure the total antioxidant activity of the samples by obeying the previously described method ([Re et al., 1999]). In brief, ABTS^•+ radicals were generated by treating 7 mM ABTS^+ aqueous solution with 2.4 mM potassium persulfate for 12-16 h at room temperature in the dark. Prior to use, this solution was diluted with ethanol (approx. 1:89 v/v) and equilibrated to […] absorbance at 734 nm to obtain the working solution. Afterward, a 1.0 mL of working solution was reacted with 20 µL (1 mg mL^−1) samples and incubated for 30 min. After incubation, samples were scanned at 734 nm absorbance wavelength and the percentage of inhibition was determined. Ascorbic acid (AA) was applied reference standard.

[3] = test system: Escherichia coli (ATCC 25922); experiment: MIC, broth microdilution with resazurin; assay type: cell-based; details: 24 h at 37 °C; for MIC: Escherichia coli, ATCC25922, 24 h
Procedure: (§1) The acetylcholinesterase (AChE) and butyrylcholinesterase (BChE) were obtained from the mouse brain and human blood at the Pharmacology Department of King Saud University, SaudiArabia. Escherichia coli (ATCC 25922), Pseudomonas aeruginosa (ATCC 27853), and Staphylococcus aureus were provided by Microbiology Department, King Khaled University Hospital (KKUH), Saudi Arabia.
(§2) Minimum inhibitory concentration (MIC) assay was performed to evaluate the in vitro antimicrobial activities using a broth microdilution method ([Nascente, 2009]). Three bacterial strains Escherichia coli (ATCC 25922), Pseudomonas aeruginosa (ATCC 27853), and Staphylococcus aureus were applied to examine the antimicrobial activity of samples. Briefly, the microbial strains were transferred to Muller Hinton agar (MHB, HiMedia, India) and 24-h colonies were individually suspended in 10 mL Muller Hinton broth (MHB, HiMedia, India). The suspension of each microbial strain was standardized at 575 nm wavelength using a spectrophotometer (CRAIC Technologies, CA, USA), to match the McFarland scale (1.5 × 10^8 CFU mL^−1). The standardized suspension was further diluted to obtain a final concentration of 5 × 10^5 CFU mL^−1. The samples prepared in DMSO at 1 mgmL^−1 and different concentrations (30–500 µgmL^−1) were attained after dilution in Mueller Hinton broth. Three inoculated wells containing different concentrations of DMSO (4% to 1% range), one non-inoculated well without an antimicrobial agent and negative controls were included. The inoculated well was used to monitor whether the broth was sufficient for the microbial strain to grow. Chloramphenicol ([…]) was applied as a positive control. The sample treated 96-well microplates were sealed and incubated for 24 h at 37 °C After a 1-day incubation, […] of 0.02% resazurin solution was added into each well to examine the viability of the microbial strain ([Palomino et al., 2002]). The minimum used concentration of test sample that inhibited the microorganism growth (MIC value) was calculated as the minimum concentration of the test samples required to prevent the color change of the resazurin solution. All the assays were performed in triplicates.

[4] = test system: Pseudomonas aeruginosa (ATCC 27853); experiment: MIC, broth microdilution with resazurin; assay type: cell-based; details: 24 h at 37 °C; for MIC: Pseudomonas aeruginosa, ATCC27853, 24 h
Procedure: as §1, §2

Staphylococcus aureus = experiment: MIC, broth microdilution with resazurin; assay type: cell-based; details: 24 h at 37 °C; for MIC: Staphylococcus aureus, 24 h
Procedure: as §1, §2

[5] = target: T1, acetylcholinesterase (AChE) (Mus musculus, UniProt P21836); experiment: biochemical; details: for Donep (mg/gm) Avg (AChE inhibitory activity) / Abs (AChE inhibitory activity) / Donep (mg/gm) (AChE inhibitory activity), single trial: Conc 10 µg/mL; for Donep (mg/gm) Avg (AChE inhibitory activity): average of trials A-C; for Abs (AChE inhibitory activity) / Donep (mg/gm) (AChE inhibitory activity), single trial: single trials A, B, C
T1 construct: Crude enzymes, AChE (acetylcholinesterase) and BChE (butyrylcholinesterase) were collected from brain of mice and blood of humans, respectively; from tissue; host or cells: mouse brain
Procedure: (§3) The acetylcholinesterase (AChE) and butyrylcholinesterase (BChE) were obtained from the mouse brain and human blood at the Pharmacology Department of King Saud University, SaudiArabia.
(§4) The AChE and BChE assays were tested by using two chemical substrates acetylthiocholine iodide and S-butyrylthiochoilne iodide, respectively. […] Afterwards, […] (1 mM, 62 µL), sodium phosphate buffer (50 mM, 25 µL, pH 8) provided with bovine albumin serum (0.1%) and […] (0.5 mm, 13 µL) were added separately into each reaction mixture. […] All the experiments were performed in triplicates to avoid error and the results were estimated through the two-tailed Student’s t-test at a p < 0.05 significance. The inhibition percentage of cholinesterase activity was calculated using the following equation I%=AC−As/AC×100
(§5) where Ac and As is the absorbance of control and sample or reference compound. IC50 values could be determined from the dose response curve obtained by plotting the percent inhibition values against test concentrations of each compound.

[6] = target: T2, butyrylcholinesterase (BChE) (Homo sapiens, UniProt P06276); experiment: biochemical; details: for Gal (mg/gm) Avg (BChE inhibitory activity) / Abs (BChE inhibitory activity) / Gal (mg/gm) (BChE inhibitory activity), single trial: Conc 10 µg/mL; for Gal (mg/gm) Avg (BChE inhibitory activity): average of trials A-C; for Abs (BChE inhibitory activity) / Gal (mg/gm) (BChE inhibitory activity), single trial: single trials A, B, C;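 for Abs (BChE inhibitory activity): absorbance read at 405 nm against blank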
T2 construct: Crude enzymes, AChE (acetylcholinesterase) and BChE (butyrylcholinesterase) were collected from brain of mice and blood of humans, respectively; from tissue; host or cells: human blood
Procedure: as §3, §4, §5

[7] = E. coli, read-out: Minimum inhibitory concentration
[8] = P. aeruginosa, read-out: Minimum inhibitory concentration
[9] = S. aureus, read-out: Minimum inhibitory concentration
[10] = crude enzyme from mouse brain, mean ± SD, triplicate, read-out: AChE IC50 (converted)
[11] = crude enzyme from human blood, mean ± SD, triplicate, read-out: BChE IC50 (converted)

T2 sequence (P06276 29-602): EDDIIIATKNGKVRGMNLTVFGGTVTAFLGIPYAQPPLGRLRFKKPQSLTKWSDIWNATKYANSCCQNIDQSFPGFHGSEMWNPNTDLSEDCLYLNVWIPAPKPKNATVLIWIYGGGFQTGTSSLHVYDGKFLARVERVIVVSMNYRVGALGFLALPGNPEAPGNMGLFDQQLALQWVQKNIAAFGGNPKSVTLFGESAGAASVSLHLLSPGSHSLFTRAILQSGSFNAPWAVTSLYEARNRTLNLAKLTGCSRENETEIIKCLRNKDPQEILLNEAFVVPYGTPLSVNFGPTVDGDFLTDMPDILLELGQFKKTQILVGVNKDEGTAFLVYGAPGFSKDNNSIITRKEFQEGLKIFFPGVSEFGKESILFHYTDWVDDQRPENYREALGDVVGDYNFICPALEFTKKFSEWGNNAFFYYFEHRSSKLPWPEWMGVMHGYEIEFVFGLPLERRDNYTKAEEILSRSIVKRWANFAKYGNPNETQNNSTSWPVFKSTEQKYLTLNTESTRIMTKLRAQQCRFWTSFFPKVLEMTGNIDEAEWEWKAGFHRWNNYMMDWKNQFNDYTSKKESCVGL
T1 sequence (P21836 32-614): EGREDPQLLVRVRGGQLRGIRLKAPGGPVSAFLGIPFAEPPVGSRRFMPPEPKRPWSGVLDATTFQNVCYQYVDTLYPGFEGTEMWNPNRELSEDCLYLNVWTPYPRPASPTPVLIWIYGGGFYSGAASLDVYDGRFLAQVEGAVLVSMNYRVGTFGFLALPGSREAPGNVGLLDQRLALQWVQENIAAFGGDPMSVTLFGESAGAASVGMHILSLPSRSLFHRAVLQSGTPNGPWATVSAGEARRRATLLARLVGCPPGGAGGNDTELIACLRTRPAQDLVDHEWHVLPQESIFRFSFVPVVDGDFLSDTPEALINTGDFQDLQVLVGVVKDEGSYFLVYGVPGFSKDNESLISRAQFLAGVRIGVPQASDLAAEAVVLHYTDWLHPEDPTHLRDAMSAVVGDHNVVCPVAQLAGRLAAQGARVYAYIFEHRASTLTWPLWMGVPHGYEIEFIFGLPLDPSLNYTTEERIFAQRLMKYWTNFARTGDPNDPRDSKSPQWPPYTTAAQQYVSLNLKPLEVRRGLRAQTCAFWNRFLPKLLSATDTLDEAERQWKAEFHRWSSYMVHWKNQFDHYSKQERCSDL

SMILES	AA (mg/gm) Avg (DPPH activity) [1] [mg/gm]	AA (mg/gm) (DPPH activity), single trial [1]	DPPH IC50 [1]	AA (mg/gm) Avg (ABTS+ activity) [2] [mg/gm]	AA (mg/gm) (ABTS+ activity), single trial [2]	ABTS^+ IC50 [2]	MIC [3, 7] [µg/mL]	MIC [4, 8] [µg/mL]	MIC (Staphylococcus aureus; [9]) [µg/mL]	Donep (mg/gm) Avg (AChE inhibitory activity) [5] [mg/gm]	Abs (AChE inhibitory activity) [5]	Donep (mg/gm) (AChE inhibitory activity), single trial [5]	IC50 [5, 10] [µM]	Gal (mg/gm) Avg (BChE inhibitory activity) [6] [mg/gm]	Abs (BChE inhibitory activity) [6]	Gal (mg/gm) (BChE inhibitory activity), single trial [6]	IC50 [6, 11] [µM]	Minimum inhibitory concentration ([3]; E. coli) [µg/mL]	Minimum inhibitory concentration ([4]; P. aeruginosa) [µg/mL]	Minimum inhibitory concentration (Staphylococcus aureus; S. aureus) [µg/mL]	also measured
O=C1O[C@H]([C@@H](O)CO)C(O)=C1O [Ascorbic acid, ascorbic acid, reference compound]	3.12	3.30 mg/gm and 2.84 mg/gm and 3.22 mg/gm	3.12 ± 0.24^a µgmL^−1	4.45	4.52 mg/gm and 4.25 mg/gm and 4.58 mg/gm	4.45 ± 0.17^a µgmL^−1															
O=C(N[C@H](CO)[C@H](O)c1ccc([N+](=O)[O-])cc1)C(Cl)Cl [Chloramphenicol, reference compound]							≤ 40	≤ 40	≤ 40												
CCCCCCCCCCCCCCCCCCCCC(O)C(=O)O (stereo not drawn) [Compound 1, 2-hydroxydocosanoic acid]	10.82	10.98 mg/gm and 10.54 mg/gm and 10.96 mg/gm	10.82 ± 0.24^d µgmL^−1	11.45	11.64 mg/gm and 11.02 mg/gm and 11.70 mg/gm	11.45 ± 0.37^d µgmL^−1	≤ 500	≤ 1000	≤ 1000	121.97	0.342 and 0.328 and 0.345	122.89 mg/gm and 120.10 mg/gm and 122.92 mg/gm	342	137.76	0.375 and 0.379 and 0.354	138.12 mg/gm and 136.98 mg/gm and 138.18 mg/gm	386				
CC[C@@H](/C=C/[C@@H](C)C1CCC2C3CCC4C[C@@H](O)CC[C@]4(C)C3CC[C@@]21C)C(C)C (stereo partly drawn) [Compound 2, stigmasta-22-ene-3-β-ol]	7.60	7.84 mg/gm and 7.12 mg/gm and 7.86 mg/gm	7.60 ± 0.42^c µgmL^−1	8.18	8.25 mg/gm and 8.02 mg/gm and 8.28 mg/gm	8.18 ± 0.13^c µgmL^−1				68.65	0.312 and 0.315 and 0.317	68.94 mg/gm and 68.01 mg/gm and 69.02 mg/gm		49.52	0.355 and 0.365 and 0.358	49.70 mg/gm and 49.12 mg/gm and 49.74 mg/gm		≤125	≤250	≤150	IC50 [5]: 166 µM; IC50 [6]: 119 µM; MIC ([3]; read-out: Minimum inhibitory concentration, E. coli): ≤ 125 µg/mL; MIC ([4]; read-out: Minimum inhibitory concentration, P. aeruginosa): ≤ 250 µg/mL; MIC (Staphylococcus aureus; read-out: Minimum inhibitory concentration, S. aureus): ≤ 150 µg/mL
CCCCCCCCCCCCCCCCCCCCCCCCCCCCCCCC(=O)O[C@H]1C[C@H](O)[C@]2(C)C3=CC=C4[C@@H]5CC(CO)(C(=O)O)CC[C@]5(C)CC[C@@]4(C)[C@]3(C)CCC2C1(C)C (stereo partly drawn) [Compound 3, 1α,3β,30-Trihydroxy-29-carboxy-olean-9(11), 12-diene-3-dotriacontanoate]	4.67	4.89 mg/gm and 4.35 mg/gm and 4.78 mg/gm	4.67 ± 0.28^b µgmL^−1	6.42	6.56 mg/gm and 6.13 mg/gm and 6.58 mg/gm	6.42 ± 0.25^b µgmL^−1	125 to 150 (≈ 132 to 158 µM)	125 to 150 (≈ 132 to 158 µM)	125 to 150 (≈ 132 to 158 µM)	38.13	0.289 and 0.294 and 0.315	38.16 mg/gm and 38.05 mg/gm and 38.20 mg/gm	40.2	32.68	0.285 and 0.286 and 0.287	32.88 mg/gm and 32.25 mg/gm and 32.92 mg/gm	34.4	≤150	≤125	≤125	Minimum inhibitory concentration ([3]; E. coli, listed as compound 3): ≤ 150 µg/mL; Minimum inhibitory concentration ([4]; P. aeruginosa, listed as compound 3): ≤ 125 µg/mL; Minimum inhibitory concentration (Staphylococcus aureus; S. aureus, listed as compound 3): ≤ 125 µg/mL
COc1ccc2c3c1O[C@H]1C[C@@H](O)C=C[C@@]31CCN(C)C2 [Galantamine, reference compound]														10.27	0.345 and 0.348 and 0.352	10.78 mg/gm and 9.29 mg/gm and 10.80 mg/gm					
